# Measurements taken from patent US20070232904A1, “Application of Hyaluronic Acid to Sentinel Lymph Node Identification” (OAKLEY, INC., priority 2004, published 2007).
# Tested on: sentinel lymph node (SLN)
# Experiment: Sentinel lymph node detection after submucosal injection in stomach and small intestine of laparotomized pig, observed by color change
# Format: in vivo
# Settings: 0.5 mL submucosal
# Procedure: A pig was laparotomized under general anesthesia and the mixture of the sodium hyaluronate and the patent blue prepared in (1) above and patent blue alone as a control were each injected at two locations which were in the tissues (submucosal) of the stomach and small intestine at 0.5 mL each, and migration from the lymphatic vessels to the lymph nodes was monitored for 3 hours after injection based on the changes in color under laparotomy. […] In addition, the colored lymph nodes were investigated histologically after 3 hours and after 24 hours. A pig was laparotomized under general anesthesia and the mixture of the sodium hyaluronate and the ferumoxides injection solution prepared in (1) above and the ferumoxides injection solution alone as a control were each injected at two locations which were in the tissues (submucosal) of the stomach and small intestine at 0.5 mL each, and migration from the lymphatic vessels to the lymph nodes was monitored for 3 hours after injection based on the changes in color under laparotomy. […] In addition, the colored lymph nodes were investigated histologically after 3 hours and after 24 hours. […]
structure (smiles),measurement,setting,value
CCN(CC)c1ccc(C(=C2C=CC(=[N+](CC)CC)C=C2)c2cc(O)c(S(=O)(=O)O)cc2S(=O)(=O)O)cc1 [patent blue],time to almost complete disappearance from the associated lymphatic system,after injection,≤ 2 h
same,time until staining of the lymphatic system / SLN after injection,stomach and small intestine wall,several minutes
